In PMC8934569 (Cancer chemotherapy and pharmacology, 2021):

Experiments:
[1] = cyclophosphamide iv at 450 mg/m^2 and 750 mg/m^2
[2] = tested on: metastatic breast cancer; settings: with veliparib 200 mg BID in 21-day cycles; cited from earlier work
[3] = tested on: MX-1 BRCA1 deficient breast cancer model; settings: in vivo; cited from earlier work
[4] = Drug-related adverse events graded by NCI CTCAE version 4.0; assay type: in vivo, human; settings: overall, 80 patients enrolled; given with veliparib

Q: For `O=P1(N(CCCl)CCCl)NCCCO1` (stereo not shown) [cyclophosphamide], which “Effect of oral veliparib on cyclophosphamide PK” value [1] is on record?
A: not influenced by veliparib

Q: And the “Recommended phase II dose of cyclophosphamide” value [2]?
A: 125 mg po daily

Q: What about the “Tumor effect of single agent” value [3] of the same compound?
A: only delayed tumor growth slightly

Q: And the “Patients with a dose reduction of cyclophosphamide” value [4]?
A: 3 patients
